“And” between values parts separate entries of the source, which are not always exact repeats. Identical values can stand only once.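 Results reflect a 48-hour exposure of cells in 96-well plates to compound at five concentrations. GI50 = concentration required for 50% inhibition of growth.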 The source made the active and inactive calls. No stated cut-off is given here; in the data, active = GI50 up to about 1.1 µM and inactive = higher.
Key:
Experiment in all cases: NCI-60 cell line screen, 48 h
SR = system: SR
LOX IMVI = system: LOX IMVI
HT-29 = system: HT-29
HL-60 = system: HL-60
MDA-MB-435 = system: MDA-MB-435
MDA-MB-231 = system: MDA-MB-231
SK-OV-3 = system: SK-OV-3
MCF7 = system: MCF7
NCI-H226 = system: NCI-H226
UACC-62 = system: UACC-62
NCI/ADR-RES = system: NCI/ADR-RES
SNB-75 = system: SNB-75
U-251 = system: U-251
SN12C = system: SN12C
A549 = system: A549
CAKI-1 = system: CAKI-1
HCT-15 = system: HCT-15
K562 = system: K562
SNB-19 = system: SNB-19
MOLT-4 = system: MOLT-4

Row | Structure (SMILES) | GI50 (SR) | GI50 (LOX IMVI) | GI50 (HT-29) | GI50 (HL-60) | GI50 (MDA-MB-435) | GI50 (MDA-MB-231) | GI50 (SK-OV-3) | GI50 (MCF7) | GI50 (NCI-H226) | GI50 (UACC-62) | GI50 (NCI/ADR-RES) | GI50 (SNB-75) | GI50 (U-251) | GI50 (SN12C) | GI50 (A549) | GI50 (CAKI-1) | GI50 (HCT-15) | GI50 (K562) | GI50 (SNB-19) | GI50 (MOLT-4)
1 | Nc1ccccc1.O=P(O)(OP(=O)(O)c1ccccc1)c1ccccc1 | > 100 µM (inactive) | > 100 µM (inactive) | > 100 µM (inactive) | 65.3 µM (inactive) | > 100 µM (inactive) | > 100 µM (inactive) | > 100 µM (inactive) | > 100 µM (inactive) | > 100 µM (inactive) | > 100 µM (inactive) | > 100 µM (inactive) | > 100 µM (inactive) | > 100 µM (inactive) | > 100 µM (inactive) | > 100 µM (inactive) | > 100 µM (inactive) | 89.3 µM | > 100 µM (inactive) | > 100 µM (inactive) | 
2 | CC(=O)N1C(C(=O)NNc2ccccc2)CSC1c1ccccc1 (centres undefined) | > 100 µM (inactive) | 3.16 µM (inactive) | > 100 µM (inactive) |  | 16.7 µM (inactive) | > 100 µM (inactive) | > 100 µM (inactive) | > 100 µM (inactive) | > 100 µM (inactive) | 1.39 µM (inactive) | > 100 µM (inactive) | > 100 µM (inactive) | > 100 µM (inactive) | > 100 µM (inactive) | 71 µM (inactive) | > 100 µM (inactive) | 1.56 µM | 3.42 µM (inactive) | > 100 µM (inactive) | 4 µM (inactive)
3 | COC(=O)CCC1(O)C=CC(=O)C=C1 | 25 µM (inactive) | 30.3 µM (inactive) | 36.7 µM (inactive) |  | > 100 µM (inactive) | > 100 µM (inactive) |  | 38.3 µM (inactive) | > 100 µM (inactive) | 20.3 µM (inactive) | 31.3 µM (inactive) | > 100 µM (inactive) | 21.1 µM (inactive) | 57.1 µM (inactive) | > 100 µM (inactive) | 16.6 µM (inactive) | 18.4 µM | 38.9 µM (inactive) | 37.8 µM (inactive) | 37.7 µM (inactive)
4 | CCC(=O)C(C(C)/C=C/CCSc1ccccc1)C(O)CCCCCC(=O)OC (centres undefined) | 32.9 µM (inactive) | 81.3 µM (inactive) | > 100 µM (inactive) |  | > 100 µM (inactive) | > 100 µM (inactive) | > 100 µM (inactive) | 66.4 µM (inactive) | > 100 µM (inactive) | 71.9 µM (inactive) | 99.5 µM (inactive) | > 100 µM (inactive) | 77.8 µM (inactive) | > 100 µM (inactive) | 91.6 µM (inactive) | 67.5 µM (inactive) | 88.7 µM | 46.3 µM (inactive) | > 100 µM (inactive) | 27.1 µM (inactive)
5 | COc1ccc2c(c1)-c1nc(=S)n(CCCN(C)C)c3ccc([N+](=O)[O-])c(c13)N2 | 0.506 µM (active) | 0.53 µM (active) | 0.261 µM (active) | 0.0269 µM (active) | 1.97 µM (inactive) | 0.687 µM (active) | 1.11 µM (active) | 0.437 µM (active) | 1.36 µM (inactive) | 12.1 µM (inactive) | 1.25 µM (inactive) | 6.32 µM (inactive) | 0.592 µM (active) | 0.582 µM (active) | 0.363 µM (active) | 1.68 µM (inactive) | 0.484 µM | 0.454 µM (active) | 0.8 µM (active) | 0.141 µM (active)
6 | C=C(C(=O)O)[C@@H]1C[C@@H]2O[C@H]1[C@@H](O)[C@@H](C)CCCC(C)=CCC[C@@]2(C)O | 49.1 µM (inactive) | 41.3 µM (inactive) and > 47.2 µM (inactive) |  |  | 71.8 µM (inactive) and > 81.3 µM (inactive) | > 100 µM (inactive) | > 100 µM (inactive) | 46 µM (inactive) and > 91.6 µM (inactive) | > 100 µM (inactive) | > 100 µM (inactive) and > 90.4 µM (inactive) | > 100 µM (inactive) | > 100 µM (inactive) | > 100 µM (inactive) and 97.3 µM (inactive) | > 100 µM (inactive) | > 100 µM (inactive) |  | > 100 µM and 78.3 µM |  | > 100 µM (inactive) | 
7 | O=C(CC(C(=O)c1cccs1)c1ccsc1)c1ccsc1 (centres undefined) | 32.6 µM (inactive) | 22.8 µM (inactive) | 36.6 µM (inactive) | 40.1 µM (inactive) | 20.3 µM (inactive) | 30 µM (inactive) | 32.1 µM (inactive) | 32.5 µM (inactive) |  | 14 µM (inactive) | 24.8 µM (inactive) | 25.6 µM (inactive) | 46.3 µM (inactive) | 52 µM (inactive) | 45.8 µM (inactive) |  | 42.1 µM | 27.4 µM (inactive) | 50.6 µM (inactive) | 21 µM (inactive)
8 | Clc1ccc(C2=CC(c3ccccc3)N3C(=N[C@H]4CCCC[C@@H]43)N2)cc1 (some centres undefined) | 2.14 µM (inactive) | 6.46 µM (inactive) | 2.39 µM (inactive) | 2.82 µM (inactive) | 7.57 µM (inactive) | 9.08 µM (inactive) | 14.3 µM (inactive) | 3.55 µM (inactive) | 8.85 µM (inactive) | 5.82 µM (inactive) | 4.35 µM (inactive) | 3.48 µM (inactive) | 4.54 µM (inactive) |  | 5.47 µM (inactive) | 13.9 µM (inactive) | 4.08 µM | 2.09 µM (inactive) | 4.55 µM (inactive) | 2.64 µM (inactive)
9 | N=C(N)C1CN(CC=O)C(=O)NC1=O (centres undefined) | > 100 µM (inactive) | > 100 µM (inactive) | > 100 µM (inactive) | > 100 µM (inactive) | > 100 µM (inactive) | > 100 µM (inactive) | > 100 µM (inactive) | > 100 µM (inactive) | > 100 µM (inactive) | > 100 µM (inactive) | > 100 µM (inactive) | > 100 µM (inactive) | > 100 µM (inactive) | > 100 µM (inactive) | > 100 µM (inactive) |  | > 100 µM | > 100 µM (inactive) | > 100 µM (inactive) | > 100 µM (inactive)
10 | CN(C)c1ccc(C2CC(c3ccc4ccccc4c3O)=NN2c2ccc([N+](=O)[O-])cc2[N+](=O)[O-])cc1 (centres undefined) | 12.6 µM (inactive) |  | 39.4 µM (inactive) |  | 17.5 µM (inactive) | 22 µM (inactive) | > 100 µM (inactive) | 23.8 µM (inactive) | 89.5 µM (inactive) | 14.3 µM (inactive) | 43.5 µM (inactive) | > 100 µM (inactive) | 41.9 µM (inactive) | 50.7 µM (inactive) | 32.3 µM (inactive) | > 100 µM (inactive) | 61.5 µM |  |  | 22.8 µM (inactive)
11 | CC1(C)OC(=O)C(C#N)=C1C[n+]1ccccc1 | > 10 µM (inactive) | > 10 µM (inactive) | > 10 µM (inactive) | > 10 µM (inactive) | > 10 µM (inactive) | > 10 µM (inactive) | > 10 µM (inactive) | > 10 µM (inactive) | > 10 µM (inactive) |  | > 10 µM (inactive) | > 10 µM (inactive) | > 10 µM (inactive) | > 10 µM (inactive) |  | > 10 µM (inactive) | > 10 µM | > 10 µM (inactive) | > 10 µM (inactive) | > 10 µM (inactive)
12 | CC(=O)OCC1OC(N2C(=O)CC(N)=Nc3ccccc32)C(OC(C)=O)C(OC(C)=O)C1OC(C)=O (centres undefined) | 41 µM (inactive) | 37.5 µM (inactive) | 53.8 µM (inactive) | 67.3 µM (inactive) | 30.6 µM (inactive) | > 100 µM (inactive) | > 100 µM (inactive) | 29.4 µM (inactive) |  | 34.6 µM (inactive) | 45.3 µM (inactive) | 29.8 µM (inactive) | 59.7 µM (inactive) | 58.2 µM (inactive) | > 100 µM (inactive) | > 100 µM (inactive) | 44.8 µM | 32.6 µM (inactive) | > 100 µM (inactive) | 16.7 µM (inactive)
13 | CCOC(=O)C1Cc2ccc(C)cc2C1=O (centres undefined) | 31.7 µM (inactive) | 62.5 µM (inactive) | > 100 µM (inactive) | 23.6 µM (inactive) | 54.5 µM (inactive) | > 100 µM (inactive) | > 100 µM (inactive) | > 100 µM (inactive) | > 100 µM (inactive) | 49.1 µM (inactive) | 85.1 µM (inactive) | > 100 µM (inactive) | 58.1 µM (inactive) | 82.6 µM (inactive) | > 100 µM (inactive) | > 100 µM (inactive) | 61.4 µM | 31.4 µM (inactive) |  | 39.4 µM (inactive)
14 | O=C(O)c1ccc(OCc2nc3cc(C(F)(F)F)ccc3nc2-c2ccccc2)cc1 | 11.5 µM (inactive) | 40 µM (inactive) | 32.1 µM (inactive) | 40 µM (inactive) | 55.2 µM (inactive) | 56.4 µM (inactive) |  | 45 µM (inactive) | 91.4 µM (inactive) | 37.6 µM (inactive) | 44.6 µM (inactive) | 17.2 µM (inactive) | 44.2 µM (inactive) | 60.4 µM (inactive) | 39.2 µM (inactive) | 5.52 µM (inactive) | 39.1 µM | 39.4 µM (inactive) | 73.8 µM (inactive) | 
15 | Cc1n[nH]c(=O)n1C1CCCC1 | > 100 µM (inactive) | > 100 µM (inactive) | > 100 µM (inactive) | > 100 µM (inactive) | > 100 µM (inactive) | > 100 µM (inactive) |  | > 100 µM (inactive) | > 100 µM (inactive) |  | > 100 µM (inactive) | > 100 µM (inactive) | > 100 µM (inactive) | > 100 µM (inactive) | > 100 µM (inactive) | > 100 µM (inactive) | > 100 µM | > 100 µM (inactive) | > 100 µM (inactive) | > 100 µM (inactive)
